Experimental data reported in patent US7074789B2, “Kinase inhibitors” (Amgen Inc., priority 1999, dated 2006).
Where two headings read alike, the source gives them in different places.

Assays:
Format in all cases: biochemical
Lck = biological target: T1, Lck (Homo sapiens, UniProt P06239); assay: Kinase inhibition assay (33P transfer), Lck; details: Table 3; read-out: Lck-1
T1 construct: Kinases are expressed as either kinase domains or full length constructs; made in house
Summary of the method: (§1)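 Enzyme activity is taken as the amount of 33PO4 moved from ATP onto poly(Glu, Tyr) 4:1 or poly(Arg, Ser) 3:1 fixed to the plate surface. Unbound label is removed with 0.5% phosphoric acid before scintillation counting.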

Lyn = biological target: T2, Lyn (Homo sapiens, UniProt P07948); assay: Kinase inhibition assay (33P transfer), Lyn; details: Table 6, Lyn-1 kinase inhibition class
T2 construct: Kinases are expressed as either kinase domains or full length constructs; made in house
Text: (§2) The inhibitor compounds described herein are screened in the following manner. Kinases suitable for use in the following protocol to determine kinase activity of the compounds described herein include, -but are not limited to: Lck, Lyn, Src, Fyn, Syk, Zap-70, Itk, Tec, Btk, EGFR, ErbB2, Kdr, Flt-1, Flt-3, Tek, c-Met, InsR, and AKT.
(§3) Kinases are expressed as either kinase domains or full length constructs fused to glutathione S-transferase (GST) or polyHistidine tagged fusion proteins in either E. colior Baculovirus-High Five expression systems. They are purified to near homogeneity by affinity chromatography essentially as previously described (Lehr et al., 1996; Gish et al., 1995). In some instances, kinases are co-expressed or mixed with purified or partially purified regulatory polypeptides prior to measurement of activity.
(§4) Kinase activity and inhibition are measured essentially by established protocols (Braunwalder et al., 1996). Briefly, The transfer of ^33PO4 from ATP to the synthetic substrates poly(Glu, Tyr) 4:1 or poly(Arg, Ser) 3:1 attached to the bioactive surface of microtiter plates serves as the basis to evaluate enzyme activity. After an incubation period, the amount of phosphate transferred is measured by first washing the plate with 0.5% phosphoric acid, adding liquid scintillant, and then counting in a liquid scintillation detector. The IC50 is determined by the concentration of compound that causes a 50% reduction in the amount of […] incorporated onto the substrate bound to the plate.

Src = biological target: T3, Src (Homo sapiens, UniProt P12931); assay: Kinase inhibition assay (33P transfer), Src; details: Table 6, Src-1 kinase inhibition class
T3 construct: Kinases are expressed as either kinase domains or full length constructs; made in house
Text: as §2, §3, §4

Fyn = biological target: T4, Fyn (Homo sapiens, UniProt P06241); assay: Kinase inhibition assay (33P transfer), Fyn; details: read-out: Fyn-1
T4 construct: Kinases are expressed as either kinase domains or full length constructs; made in house
T4 sequence (P06241 whole entry, species assumed, the tested form may be a part): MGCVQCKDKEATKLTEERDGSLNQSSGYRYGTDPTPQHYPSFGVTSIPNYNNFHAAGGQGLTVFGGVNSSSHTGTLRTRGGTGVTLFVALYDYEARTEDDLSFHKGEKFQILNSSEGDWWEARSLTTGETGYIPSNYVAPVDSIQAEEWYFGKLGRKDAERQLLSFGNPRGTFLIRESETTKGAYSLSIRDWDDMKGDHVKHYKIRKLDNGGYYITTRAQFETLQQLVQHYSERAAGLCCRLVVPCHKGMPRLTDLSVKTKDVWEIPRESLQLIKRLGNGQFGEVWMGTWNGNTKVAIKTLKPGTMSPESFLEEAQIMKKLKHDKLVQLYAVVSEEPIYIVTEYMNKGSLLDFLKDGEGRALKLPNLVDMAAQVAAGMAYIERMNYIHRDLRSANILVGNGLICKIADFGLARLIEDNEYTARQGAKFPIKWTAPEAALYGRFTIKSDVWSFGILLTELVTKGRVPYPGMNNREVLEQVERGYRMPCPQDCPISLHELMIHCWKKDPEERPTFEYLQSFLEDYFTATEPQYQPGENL
Text: as §2, §3, §4

Zap-70 = biological target: T5, Zap-70 (Homo sapiens, UniProt P43403); assay: Kinase inhibition assay (33P transfer), Zap-70; details: read-out: Zap-1
T5 construct: Kinases are expressed as either kinase domains or full length constructs; made in house
T5 sequence (P43403 1-619): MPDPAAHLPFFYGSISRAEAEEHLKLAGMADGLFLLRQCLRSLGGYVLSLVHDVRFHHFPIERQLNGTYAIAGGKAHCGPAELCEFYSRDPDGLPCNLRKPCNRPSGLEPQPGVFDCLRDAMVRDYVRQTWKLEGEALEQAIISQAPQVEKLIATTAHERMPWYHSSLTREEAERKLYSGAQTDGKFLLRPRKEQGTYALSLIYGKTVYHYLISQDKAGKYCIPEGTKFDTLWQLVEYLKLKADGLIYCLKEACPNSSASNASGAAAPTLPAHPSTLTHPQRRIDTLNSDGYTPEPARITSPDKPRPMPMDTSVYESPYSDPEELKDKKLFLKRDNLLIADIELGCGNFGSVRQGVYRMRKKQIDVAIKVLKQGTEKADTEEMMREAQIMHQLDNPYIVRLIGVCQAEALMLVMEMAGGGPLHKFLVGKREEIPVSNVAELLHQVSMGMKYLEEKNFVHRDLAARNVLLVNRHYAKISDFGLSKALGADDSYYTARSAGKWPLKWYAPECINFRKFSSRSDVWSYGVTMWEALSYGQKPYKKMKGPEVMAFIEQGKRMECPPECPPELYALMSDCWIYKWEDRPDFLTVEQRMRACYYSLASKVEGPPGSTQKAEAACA
Summary of the method: as §1

Itk = biological target: T6, Itk (Homo sapiens, UniProt Q08881); assay: Kinase inhibition assay (33P transfer), Itk; details: read-out: Itk-1
T6 construct: Kinases are expressed as either kinase domains or full length constructs; made in house
T6 sequence (Q08881 1-620): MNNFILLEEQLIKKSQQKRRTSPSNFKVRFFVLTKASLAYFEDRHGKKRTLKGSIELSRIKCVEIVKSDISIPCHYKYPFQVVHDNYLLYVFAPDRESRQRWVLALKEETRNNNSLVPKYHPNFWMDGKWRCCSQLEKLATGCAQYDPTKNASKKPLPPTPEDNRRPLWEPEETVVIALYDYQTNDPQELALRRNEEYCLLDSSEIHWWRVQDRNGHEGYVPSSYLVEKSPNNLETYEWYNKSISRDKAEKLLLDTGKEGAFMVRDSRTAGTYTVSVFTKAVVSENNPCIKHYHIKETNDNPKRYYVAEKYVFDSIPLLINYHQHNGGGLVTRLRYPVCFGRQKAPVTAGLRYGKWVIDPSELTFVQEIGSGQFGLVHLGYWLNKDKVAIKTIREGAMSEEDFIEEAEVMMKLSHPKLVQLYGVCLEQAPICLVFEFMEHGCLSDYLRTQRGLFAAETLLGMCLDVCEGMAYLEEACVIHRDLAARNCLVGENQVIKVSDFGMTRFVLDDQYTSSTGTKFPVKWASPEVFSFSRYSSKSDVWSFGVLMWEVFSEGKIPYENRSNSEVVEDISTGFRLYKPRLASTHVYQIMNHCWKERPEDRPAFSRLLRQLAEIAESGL
Summary of the method: (§5)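 Activity read as 33P incorporation from ATP into poly(Glu,Tyr) 4:1 or poly(Arg,Ser) 3:1 substrate bound to microtiter plates, measured by scintillation after acid washing. Enzymes were affinity-purified GST or polyHis fusions (kinase domain or full length) from E. coli or baculovirus; IC50 = 50% reduction in labelled phosphate.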

EGFR = biological target: T7, EGFR (Homo sapiens, UniProt P00533); assay: Kinase inhibition assay (33P transfer), EGFR; details: Table 2, kinase inhibition class; read-out: EGFR-1
T7 construct: Kinases are expressed as either kinase domains or full length constructs; made in house
T7 sequence (P00533 25-1210, species assumed): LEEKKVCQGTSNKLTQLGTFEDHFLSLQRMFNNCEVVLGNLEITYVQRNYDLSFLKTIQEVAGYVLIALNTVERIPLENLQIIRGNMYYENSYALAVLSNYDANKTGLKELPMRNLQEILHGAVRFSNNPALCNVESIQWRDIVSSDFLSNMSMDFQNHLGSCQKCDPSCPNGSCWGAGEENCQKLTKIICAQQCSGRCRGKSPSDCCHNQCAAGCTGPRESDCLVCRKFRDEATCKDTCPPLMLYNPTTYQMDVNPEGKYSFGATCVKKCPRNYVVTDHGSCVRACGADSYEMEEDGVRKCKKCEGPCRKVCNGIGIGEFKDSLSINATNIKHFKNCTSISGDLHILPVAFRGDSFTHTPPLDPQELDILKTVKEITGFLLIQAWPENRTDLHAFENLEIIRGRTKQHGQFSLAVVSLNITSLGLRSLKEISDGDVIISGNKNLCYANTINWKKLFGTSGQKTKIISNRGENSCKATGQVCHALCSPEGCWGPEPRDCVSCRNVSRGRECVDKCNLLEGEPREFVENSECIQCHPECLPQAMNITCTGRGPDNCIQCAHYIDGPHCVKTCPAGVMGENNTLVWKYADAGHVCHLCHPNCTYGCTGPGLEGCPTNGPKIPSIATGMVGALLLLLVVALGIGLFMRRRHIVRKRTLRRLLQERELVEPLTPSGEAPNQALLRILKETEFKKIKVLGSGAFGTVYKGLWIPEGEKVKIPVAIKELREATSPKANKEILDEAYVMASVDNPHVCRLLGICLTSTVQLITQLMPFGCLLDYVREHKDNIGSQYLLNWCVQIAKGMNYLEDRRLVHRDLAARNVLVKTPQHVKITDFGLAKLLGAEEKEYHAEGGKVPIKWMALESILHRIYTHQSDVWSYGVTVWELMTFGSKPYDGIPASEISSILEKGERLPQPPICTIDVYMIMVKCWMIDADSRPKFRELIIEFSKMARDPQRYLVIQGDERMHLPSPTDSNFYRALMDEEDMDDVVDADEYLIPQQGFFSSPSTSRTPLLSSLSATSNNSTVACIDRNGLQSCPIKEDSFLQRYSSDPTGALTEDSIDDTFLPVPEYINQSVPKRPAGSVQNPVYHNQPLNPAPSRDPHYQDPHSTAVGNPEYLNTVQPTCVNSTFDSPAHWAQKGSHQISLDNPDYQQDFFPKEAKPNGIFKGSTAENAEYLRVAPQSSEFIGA
Summary of the method: as §5

Kdr = biological target: T8, Kdr (Homo sapiens, UniProt P35968); assay: Kinase inhibition assay (33P transfer), Kdr; details: Table 3; read-out: KDR-1
T8 construct: Kinases are expressed as either kinase domains or full length constructs; made in house
Summary of the method: as §1

Flt-1 = biological target: T9, Flt-1 (Homo sapiens, UniProt P17948); assay: Kinase inhibition assay (33P transfer), Flt-1
T9 construct: Kinases are expressed as either kinase domains or full length constructs; made in house
Text: as §2, §3, §4

Tek = biological target: T10, Tek (Homo sapiens, UniProt Q02763); assay: Kinase inhibition assay (33P transfer), Tek; details: read-out: Tek-1
T10 construct: Kinases are expressed as either kinase domains or full length constructs; made in house
Summary of the method: as §5

c-Met = biological target: T11, c-Met (Homo sapiens, UniProt P08581); assay: Kinase inhibition assay (33P transfer), c-Met; details: Table 2, kinase inhibition class; read-out: Met-1
T11 construct: Kinases are expressed as either kinase domains or full length constructs; made in house
Summary of the method: as §5

AKT = biological target: T12, AKT (Homo sapiens, UniProt Q9Y243); assay: Kinase inhibition assay (33P transfer), AKT; details: Table 2, kinase inhibition class; read-out: AKT3-1
T12 construct: Kinases are expressed as either kinase domains or full length constructs; made in house
T12 sequence (Q9Y243 whole entry, the tested form may be a part): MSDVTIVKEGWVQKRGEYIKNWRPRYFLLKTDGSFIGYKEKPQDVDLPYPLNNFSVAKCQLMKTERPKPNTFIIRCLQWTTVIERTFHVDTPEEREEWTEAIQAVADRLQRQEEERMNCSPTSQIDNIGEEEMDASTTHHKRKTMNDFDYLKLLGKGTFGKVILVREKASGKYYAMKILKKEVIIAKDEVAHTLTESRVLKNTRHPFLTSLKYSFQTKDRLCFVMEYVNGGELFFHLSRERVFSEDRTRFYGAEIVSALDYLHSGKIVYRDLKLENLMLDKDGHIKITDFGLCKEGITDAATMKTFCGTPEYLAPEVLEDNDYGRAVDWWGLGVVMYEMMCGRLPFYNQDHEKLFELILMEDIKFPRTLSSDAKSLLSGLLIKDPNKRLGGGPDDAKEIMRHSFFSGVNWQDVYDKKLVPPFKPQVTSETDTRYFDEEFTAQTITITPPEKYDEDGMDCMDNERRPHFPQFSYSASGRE
Summary of the method: as §1

PDGFRB = biological target: T13, PDGFRB (Homo sapiens, UniProt P09619); assay: Kinase inhibition assay (33P transfer), PDGFRB; details: read-out: PDGFRB-1
T13 construct: Kinases are expressed as either kinase domains or full length constructs; made in house

Hck-1 = biological target: T14, Hck-1 (Homo sapiens, UniProt P08631); assay: Kinase inhibition assay (33P transfer), Hck; details: Table 6, Hck-1 kinase inhibition class
T14 construct: Kinases are expressed as either kinase domains or full length constructs; made in house
T14 sequence (P08631 whole entry, the tested form may be a part): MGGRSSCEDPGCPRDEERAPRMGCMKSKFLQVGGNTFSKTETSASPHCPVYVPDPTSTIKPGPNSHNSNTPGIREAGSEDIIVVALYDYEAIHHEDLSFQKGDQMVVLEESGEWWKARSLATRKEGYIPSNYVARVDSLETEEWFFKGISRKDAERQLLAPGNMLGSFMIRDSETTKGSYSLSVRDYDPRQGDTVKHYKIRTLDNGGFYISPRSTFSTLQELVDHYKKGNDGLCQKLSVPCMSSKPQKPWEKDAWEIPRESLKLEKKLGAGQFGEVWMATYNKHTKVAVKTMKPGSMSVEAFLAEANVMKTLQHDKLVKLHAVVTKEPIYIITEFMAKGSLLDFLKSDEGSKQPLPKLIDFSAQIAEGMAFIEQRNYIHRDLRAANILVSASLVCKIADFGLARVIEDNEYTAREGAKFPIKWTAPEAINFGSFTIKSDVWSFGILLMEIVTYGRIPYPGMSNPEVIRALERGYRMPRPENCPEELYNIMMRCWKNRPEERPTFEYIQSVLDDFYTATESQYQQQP

ErbB4 = biological target: T15, ErbB4 (Homo sapiens, UniProt Q15303); assay: Kinase inhibition assay (33P transfer), ErbB4; details: read-out: ErbB4-1
T15 construct: Kinases are expressed as either kinase domains or full length constructs; made in house
T15 sequence (Q15303 26-1308, species assumed): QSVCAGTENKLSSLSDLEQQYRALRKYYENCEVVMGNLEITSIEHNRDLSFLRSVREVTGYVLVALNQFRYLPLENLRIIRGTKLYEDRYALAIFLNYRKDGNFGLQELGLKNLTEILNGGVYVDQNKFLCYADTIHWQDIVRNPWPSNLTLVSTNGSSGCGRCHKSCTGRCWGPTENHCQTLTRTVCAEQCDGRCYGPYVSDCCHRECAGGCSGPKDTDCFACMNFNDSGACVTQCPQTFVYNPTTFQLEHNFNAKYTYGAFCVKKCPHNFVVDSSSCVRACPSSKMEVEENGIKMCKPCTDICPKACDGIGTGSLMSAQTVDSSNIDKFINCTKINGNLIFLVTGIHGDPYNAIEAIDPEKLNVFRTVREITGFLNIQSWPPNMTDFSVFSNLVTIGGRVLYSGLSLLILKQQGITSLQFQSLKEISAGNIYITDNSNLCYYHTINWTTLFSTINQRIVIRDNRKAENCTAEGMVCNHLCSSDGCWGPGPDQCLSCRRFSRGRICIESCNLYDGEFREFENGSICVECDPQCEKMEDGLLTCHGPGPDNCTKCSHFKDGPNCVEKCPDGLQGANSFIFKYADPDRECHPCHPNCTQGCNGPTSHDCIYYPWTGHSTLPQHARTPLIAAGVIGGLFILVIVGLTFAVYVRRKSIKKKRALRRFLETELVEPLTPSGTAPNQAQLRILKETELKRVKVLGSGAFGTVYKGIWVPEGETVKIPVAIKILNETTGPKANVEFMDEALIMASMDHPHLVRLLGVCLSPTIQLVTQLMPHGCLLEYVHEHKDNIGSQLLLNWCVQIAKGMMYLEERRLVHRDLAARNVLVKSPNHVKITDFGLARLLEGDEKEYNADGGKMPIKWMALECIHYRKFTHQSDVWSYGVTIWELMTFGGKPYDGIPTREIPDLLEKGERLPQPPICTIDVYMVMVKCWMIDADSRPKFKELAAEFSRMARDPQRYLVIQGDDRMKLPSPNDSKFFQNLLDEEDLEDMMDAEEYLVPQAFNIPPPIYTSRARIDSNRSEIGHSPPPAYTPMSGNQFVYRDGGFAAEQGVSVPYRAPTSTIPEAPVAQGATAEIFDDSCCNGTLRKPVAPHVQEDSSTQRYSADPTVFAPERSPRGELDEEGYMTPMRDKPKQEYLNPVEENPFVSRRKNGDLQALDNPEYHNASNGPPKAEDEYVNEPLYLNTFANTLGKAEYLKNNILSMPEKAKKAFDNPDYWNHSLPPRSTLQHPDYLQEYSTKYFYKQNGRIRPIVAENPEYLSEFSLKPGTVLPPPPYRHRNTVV

FGFR1 = biological target: T16, FGFR1 (Homo sapiens, UniProt P11362); assay: Kinase inhibition assay (33P transfer), FGFR1; details: read-out: FGFR1-1
T16 construct: Kinases are expressed as either kinase domains or full length constructs; made in house
T16 sequence (P11362 22-822, species assumed): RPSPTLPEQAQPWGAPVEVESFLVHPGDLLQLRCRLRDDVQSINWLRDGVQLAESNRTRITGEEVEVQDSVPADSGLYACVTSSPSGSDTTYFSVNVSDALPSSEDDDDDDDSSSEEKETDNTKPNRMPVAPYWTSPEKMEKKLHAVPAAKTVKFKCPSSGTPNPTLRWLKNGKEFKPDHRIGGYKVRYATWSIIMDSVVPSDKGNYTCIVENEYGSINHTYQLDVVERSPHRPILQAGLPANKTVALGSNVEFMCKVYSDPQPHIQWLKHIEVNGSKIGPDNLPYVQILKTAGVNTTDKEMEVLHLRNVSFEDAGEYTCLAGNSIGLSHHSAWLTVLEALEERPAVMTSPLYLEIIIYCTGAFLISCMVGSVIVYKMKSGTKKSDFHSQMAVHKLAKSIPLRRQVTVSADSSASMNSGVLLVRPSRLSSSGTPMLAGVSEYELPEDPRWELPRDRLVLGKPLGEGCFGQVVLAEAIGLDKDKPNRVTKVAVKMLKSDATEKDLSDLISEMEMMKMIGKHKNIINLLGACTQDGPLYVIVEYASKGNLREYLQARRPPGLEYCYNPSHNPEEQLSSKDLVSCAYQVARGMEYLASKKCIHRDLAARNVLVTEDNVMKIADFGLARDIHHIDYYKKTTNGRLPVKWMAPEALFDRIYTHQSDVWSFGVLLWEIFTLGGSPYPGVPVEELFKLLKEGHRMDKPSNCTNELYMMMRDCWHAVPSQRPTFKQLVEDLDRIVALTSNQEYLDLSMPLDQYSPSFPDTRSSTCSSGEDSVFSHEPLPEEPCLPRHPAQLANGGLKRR

ErbB2 = biological target: T17, ErbB2 (Homo sapiens, UniProt P04626); assay: Kinase inhibition assay (33P transfer), ErbB2; details: read-out: ErbB2-2
T17 construct: Kinases are expressed as either kinase domains or full length constructs; made in house
Summary of the method: as §5

IGFR-1 = biological target: T18, IGFR-1 (Homo sapiens, UniProt P08069); assay: Kinase inhibition assay, IGFR-1 (Table 2); details: Table 2, kinase inhibition class
T18 construct: Kinases are expressed as either kinase domains or full length constructs; made in house

| IC50 (Lck) [nM] | IC50 (Lyn) [nM] | IC50 (Src) [µM] | IC50 (Fyn) [µM] | IC50 (Zap-70; Table 3) [µM] | IC50 (Itk; Table 3) [µM] | IC50 (EGFR) [µM] | IC50 (Kdr) [nM] | IC50 (Flt-1) [µM] | IC50 (Tek) [µM] | IC50 (c-Met) [µM] | IC50 (AKT) [µM] | IC50 (PDGFRB) [nM] | IC50 (Hck-1) [µM] | IC50 (ErbB4) [µM] | IC50 (FGFR1) [µM] | IC50 (Zap-70) [µM] | IC50 (Itk) [µM] | IC50 (ErbB2) [µM] | IC50 (IGFR-1) [µM] | Structure (SMILES) |
| --- | --- | --- | --- | --- | --- | --- | --- | --- | --- | --- | --- | --- | --- | --- | --- | --- | --- | --- | --- | --- |
| 1080 to 6480 | 1080 to 6480 | 1.08 to 6.48 | 1.08 to 6.48 | 6.48 to 9.45 | 1.08 to 6.48 | 1.08 to 6.48 | < 1080 | < 1.08 | 1.08 to 6.48 | 1.08 to 6.48 | 1.08 to 6.48 | < 1080 | 1.08 to 6.48 | 1.08 to 6.48 | < 1.08 |  |  |  |  | Nc1nc2ccccc2n1-c1ncnc(Nc2cccc(-c3cnco3)c2)n1 [Compound 439] |
| < 1010 | < 1010 | > 11.4 | > 11.4 | > 11.4 | > 11.4 | > 11.4 | 1010 to 6080 | > 11.4 | > 11.4 | > 11.4 | > 11.4 | 6080 to 8870 | > 11.4 | > 11.4 | > 11.4 |  |  |  |  | C=CCNc1cc(-c2ncnc(Nc3cc(OC)c(OC)c(OC)c3)n2)ccn1 [Compound 412] |
|  | < 982 | < 0.982 |  |  |  | < 0.982 |  |  | 8.59 to 11 |  | > 11 |  | > 11 | 0.982 to 5.89 |  | > 11 | > 11 | 0.982 to 5.89 | > 11 | COc1cc(Nc2ncnc(N3CCCc4cc(C)ccc43)n2)cc(OC)c1OC [Compound 498] |

The remaining lines, values behind:

| Structure (SMILES) | IC50 (Lck) [nM] | IC50 (Lyn) [nM] | IC50 (Src) [µM] | IC50 (Fyn) [µM] | IC50 (Zap-70; Table 3) [µM] | IC50 (Itk; Table 3) [µM] | IC50 (EGFR) [µM] | IC50 (Kdr) [nM] | IC50 (Flt-1) [µM] | IC50 (Tek) [µM] | IC50 (c-Met) [µM] | IC50 (AKT) [µM] | IC50 (PDGFRB) [nM] | IC50 (Hck-1) [µM] | IC50 (ErbB4) [µM] | IC50 (FGFR1) [µM] | IC50 (Zap-70) [µM] | IC50 (Itk) [µM] | IC50 (ErbB2) [µM] | IC50 (IGFR-1) [µM] |
| --- | --- | --- | --- | --- | --- | --- | --- | --- | --- | --- | --- | --- | --- | --- | --- | --- | --- | --- | --- | --- |
| CNc1nc2ccccc2n1-c1ncnc(Nc2cc(OC)c(OC)c(OC)c2)n1 [Compound 417] | < 982 | 982 to 5890 | 0.982 to 5.89 | 5.89 to 8.59 | > 11 | > 11 | > 11 | < 982 | 0.982 to 5.89 | > 11 | > 11 | > 11 | < 982 | > 11 | > 11 | < 0.982 |  |  |  |  |
| NCc1ccc(Nc2ncnc(Nc3cc(-c4ccco4)n[nH]3)n2)cc1 [Compound 437] | 1150 to 6890 | 1150 to 6890 | 1.15 to 6.89 | 1.15 to 6.89 | > 12.9 | 1.15 to 6.89 | 1.15 to 6.89 | < 1150 | 1.15 to 6.89 | 6.89 to 10 | 1.15 to 6.89 | > 12.9 | < 1150 | 10 to 12.9 | 1.15 to 6.89 | < 1.15 |  |  |  |  |
| COc1cc(Nc2ncnc(N[C@H](CO)c3ccccc3)n2)cc(OC)c1OC [Compound 425] | > 11300 | < 1010 | 1.01 to 6.04 | 8.81 to 11.3 | > 11.3 | > 11.3 | 1.01 to 6.04 | 8810 to 11300 | > 11.3 | > 11.3 | > 11.3 | > 11.3 | 1010 to 6040 | > 11.3 | > 11.3 | 6.04 to 8.81 |  |  |  |  |
